Article PMC3931943, “Extraction of tamoxifen and its metabolites from formalin-fixed, paraffin-embedded tissues: an innovative quantitation method using liquid chromatography and tandem mass spectrometry” (Cancer Chemotherapy and Pharmacology, 2014)

How the values were obtained:
[1] = LC-MS/MS quantitation of TAM and its metabolites in archival FFPE breast tumor tissue of TAM-treated patients; assay type: in vivo, human; conditions: for Mean concentration in FFPE tissue, tumor recurrent patients: breast tumor recurrence patients (n = 16), mean 26 months on TAM; for Mean concentration in FFPE tissue, tumor recurrent patients / Mean concentration in FFPE tissue, tumor non-recurrent patients: 20 mg/day TAM for at least 6 months, mean ± SEM, Z-isomers quantitated; for Mean concentration in FFPE tissue, tumor non-recurrent patients: patients without tumor recurrence (n = 8), mean 22 months on TAM
Method: This study was approved by the Conjoint Health Research Ethics Board. FFPE tissue blocks were acquired from the archives of the pathology department at Foothills Medical Centre (Calgary, AB, Canada). Patients who had estrogen-receptor positive breast cancers diagnosed from 1990 to 2010 and treated with standard doses of TAM (20 mg/day of TAM for at least 6 months until time of biopsy with a treatment plan of 5 years on TAM) were selected for investigation. Patients were divided into two groups categorized as breast tumor recurrence (n = 16) and non-recurrence (n = 8).
Six 15 μm paraffin sections were removed from each FFPE tissue block and placed in a 1.5 mL eppendorf tube. The tissue sections were then deparaffinized by incubating with 1 mL of xylene for 10 min at room temperature. About 20 μL of I.S. was added followed by centrifugation at 20,000g for 5 min. Since xylene washes most of the TAM and metabolites from the paraffin sections, the supernatant was collected and transferred to a clean eppendorf tube. This procedure was repeated, and the two supernatants were combined followed by an SPE clean-up. Sample purification was performed via an SPE column vacuum manifold (Supelco, PA, USA). Samples were loaded onto the SPE columns previously conditioned with 3 mL of methanol and acetonitrile followed by a wash with 2 mL of 10 % methanol. The SPE cartridges were dried thereafter for 2 min, and the analytes were eluted with 2 mL of 5 % 50 mM ammonium acetate in methanol. Eluates were evaporated to dryness under a stream of nitrogen at 55 °C using a heating module obtained from Thermo Scientific/Pierce (Asheville, NC, USA). The dry extracts were then resuspended in 100 μL of acetonitrile/0.2 % formic acid (50:50).
Liquid chromatography was performed on a 1200 SL series LC system consisting of a binary pump, well-plate autosampler and thermostated column compartment (Agilent Technologies). Separation of TAM and metabolites was carried out using a Zorbax SB-C18 column (150 × 2.1 mm i.d., 3.5 μm particle size, Agilent Technologies) with a column temperature of 40 °C. Mobile phase consisted of 0.2 % formic acid and acetonitrile (60:40) at a flow rate of 0.2 mL/min with a gradient of 40–90 % of acetonitrile over 5 min. About 30 μL of the sample extract was injected onto the LC system. The total run time was 12 min including column equilibration.
MS detection of the analytes was accomplished by a 6410 triple-quadrupole mass spectrometer equipped with an electrospray ion source operating in the positive ion mode (Agilent Technologies). High purity nitrogen was used as the drying gas at a flow rate of 11 L/min with a gas temperature of 350 °C, and the nebulizer pressure was set at 35 psi. The capillary voltage was set at 4,000 V for each compound; however, the fragmentor voltages and the collision energies were operated at different settings for optimization of each analyte (Table 1). Quantitation was performed in multiple-reaction monitoring (MRM) mode, and the transitions of the precursors to product ions are summarized in Table 1. Data acquisition and analysis were performed using Mass Hunter Software v.B.02.01 (Agilent Technologies).

[2] = set-up: method as in PMID 17529893; conditions: frozen tissues (~2 mg), breast cancer patients, single dose of 20 mg TAM, samples 5 h postdrug administration; cited from earlier work

CC/C(=C(\c1ccccc1)c1ccc(OCCNC)cc1)c1ccccc1 [DMT, N-desmethyl-tamoxifen]
Mean concentration in FFPE tissue, tumor recurrent patients [1]: 324 ± 103 ng/g
Mean concentration in FFPE tissue, tumor non-recurrent patients [1]: 1,256 ± 282.8 ng/g
Average concentration in frozen tissue [2]: 23.3 ng/g
Range of concentration in frozen tissue [2]: 0 to 643 ng/g

CC/C(=C(\c1ccc(O)cc1)c1ccc(OCCNC)cc1)c1ccccc1 [Endoxifen, N-desmethyl-4-hydroxy-tamoxifen]
Mean concentration in FFPE tissue, tumor recurrent patients [1]: 19.2 ± 5.08 ng/g
Mean concentration in FFPE tissue, tumor non-recurrent patients [1]: 94.6 ± 41.0 ng/g
Detection in FFPE tissue of tumor recurrent patients ([1]; some of the tumor recurrent patients (data not shown), possibly below the detection limit of the assay): not found

CC/C(=C(\c1ccccc1)c1ccc(OCCN(C)C)cc1)c1ccccc1 [TAM, Tamoxifen]
Mean concentration in FFPE tissue, tumor recurrent patients [1]: 122 ± 25.2 ng/g
Mean concentration in FFPE tissue, tumor non-recurrent patients [1]: 147 ± 51.7 ng/g
Average concentration in frozen tissue [2]: 118 ng/g
